In one assay the target is T1, Liver carboxylesterase (Sus scrofa, UniProt Q29550).
T1 sequence (Q29550 whole entry): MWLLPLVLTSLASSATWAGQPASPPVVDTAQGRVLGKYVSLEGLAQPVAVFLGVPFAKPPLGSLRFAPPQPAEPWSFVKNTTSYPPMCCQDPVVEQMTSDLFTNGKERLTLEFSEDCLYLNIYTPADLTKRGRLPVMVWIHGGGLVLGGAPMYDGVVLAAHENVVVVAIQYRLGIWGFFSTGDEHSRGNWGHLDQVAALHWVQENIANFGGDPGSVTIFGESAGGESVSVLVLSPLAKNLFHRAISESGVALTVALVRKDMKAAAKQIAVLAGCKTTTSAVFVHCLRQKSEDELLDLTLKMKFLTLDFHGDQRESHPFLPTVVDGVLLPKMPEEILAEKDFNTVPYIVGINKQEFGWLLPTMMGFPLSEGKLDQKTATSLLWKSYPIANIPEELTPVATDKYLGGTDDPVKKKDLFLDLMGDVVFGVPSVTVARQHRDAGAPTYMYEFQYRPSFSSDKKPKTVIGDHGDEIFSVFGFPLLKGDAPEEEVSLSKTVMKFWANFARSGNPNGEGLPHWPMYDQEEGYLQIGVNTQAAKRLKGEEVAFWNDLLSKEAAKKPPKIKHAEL
As to the kind of experiment: Inhibition of porcine liver carboxylesterase using [14C]GS-7340 substrate.

Assay [1] is described as follows: Inhibition of crude human PBMC extract prodrug hydrolase using [14C]GS-7340 substrate.
The target of assay [2] is T2, Lysosomal protective protein (Homo sapiens, UniProt P10619).
T2 sequence (P10619 whole entry): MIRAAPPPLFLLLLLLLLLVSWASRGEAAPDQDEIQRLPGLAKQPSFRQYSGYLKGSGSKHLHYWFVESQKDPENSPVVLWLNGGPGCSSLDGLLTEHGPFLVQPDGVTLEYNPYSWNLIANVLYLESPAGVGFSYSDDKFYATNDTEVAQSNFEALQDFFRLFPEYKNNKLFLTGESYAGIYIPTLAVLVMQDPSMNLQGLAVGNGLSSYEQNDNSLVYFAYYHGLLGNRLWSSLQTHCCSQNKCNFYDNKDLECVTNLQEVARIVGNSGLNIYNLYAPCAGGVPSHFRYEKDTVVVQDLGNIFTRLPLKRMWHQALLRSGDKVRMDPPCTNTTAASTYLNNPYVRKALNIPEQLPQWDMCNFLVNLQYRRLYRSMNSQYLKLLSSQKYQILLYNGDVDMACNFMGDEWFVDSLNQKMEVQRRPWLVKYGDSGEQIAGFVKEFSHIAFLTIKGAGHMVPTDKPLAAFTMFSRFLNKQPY
As to the kind of experiment: Inhibition of recombinant CatA using [14C]GS-7340 substrate.

In a further assay the target is T3, Neutrophil elastase (Homo sapiens, UniProt P08246).
T3 sequence (P08246 whole entry): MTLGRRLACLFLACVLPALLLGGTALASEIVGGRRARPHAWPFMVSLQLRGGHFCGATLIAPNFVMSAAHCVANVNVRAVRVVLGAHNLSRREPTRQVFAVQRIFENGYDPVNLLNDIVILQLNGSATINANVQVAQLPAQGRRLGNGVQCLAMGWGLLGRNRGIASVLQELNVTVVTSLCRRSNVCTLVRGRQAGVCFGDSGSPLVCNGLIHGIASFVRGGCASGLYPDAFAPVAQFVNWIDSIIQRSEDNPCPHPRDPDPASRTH
As to the kind of experiment: Inhibition of human leukocyte elastase using [14C]GS7340 substrate.

Assay [3] is described as follows: Inhibition of purified prodrug hydrolase using [14C]GS-7340 substrate. The arrangement: species or system Homo sapiens.

`CC(C)C[C@H](NC(=O)[C@H]1O[C@@H]1C(=O)O)C(=O)NCCCCN=C(N)N` [E-64]: the IC50 (against Liver carboxylesterase; in assay [1]; in assay [2]; against Neutrophil elastase; in assay [3]) was greater than 300 µM each time.
In the case of `O=c1oc(Cl)c(Cl)c2ccccc12`, the IC50 against Liver carboxylesterase was greater than 250 µM; in assay [1], 5 µM; in assay [2] it was 0.6 µM; in assay [3] it was 0.5 µM.

These data come from ChEMBL document CHEMBL1142204, “Cathepsin A is the major hydrolase catalyzing the intracellular hydrolysis of the antiretroviral nucleotide phosphonoamidate prodrugs GS-7340 and GS-9131” (Antimicrob Agents Chemother, 2007).
